# Measurements taken from patent US9968585B2, “Prevention or treatment agent for cerebral amyloid beta storage diseases” (TOYAMA CHEMICAL CO., LTD., priority 2014, dated 2018).
# Legend:
# [1] = system: patient with complication of AZD and CAA; assay: Clinical case, Example 1: patient with complication of AZD and CAA; type: in vivo, human
# Source text: Patient
# Family history: […] died of cerebral hemorrhage (type unknown) in his 50s. […]
# Past history: deep white matter lesions (diagnosed by head MRI, T2-WI), lateral ventricular low density area (diagnosed by head CT), and moderate cerebral atrophy in the cerebral cortex including the hippocampus, parietal lobe, and frontal lobe and mild disturbance of memorization had been observed. However, there was no particular problem in everyday life.
# History of present illness: person, walking difficulty (decreased speed and decreased stability of walking) appeared and then progressed slowly. Continuous walking of long distances of 600 m or more and walking with a heavy load (10 kg or more) in their hand or on their shoulder became difficult. Short-stepped gait and frontal gait appeared sometimes, with no fall. Cerebrovascular disorder was suspected and examinations by CT and MRI (other than T2-WI) were conducted. However, any responsible lesions, which were likely to develop relatively rapid walking difficulties, were not found, other than deep white matter lesions and moderate cerebral atrophy, which were observed previously. Parkinson's disease (syndrome) was also suspected and a therapeutic agent for the disease was temporarily administered, which was stopped because of the lack of efficacy. […] Instability of walking also progressed relatively rapidly and it became difficult to walk outdoor without a walking stick.
# Meanwhile, MRI (T1/2WI, T2-WI) detected multiple micro-bleeding mainly in the area from bilateral basal ganglia (thalamus and hypothalamus) to upper brain stem and the patient was diagnosed with CAA. The patient was also diagnosed with AZD based on diffuse cerebral atrophy including hippocampus and a wide range of cerebral cortex and moderate dementia. […]
# For walking, an assistance, or at least handrail, became always necessary and continuous walking of distances of 50 m or more became difficult (unstable) even with an assistance. Furthermore, the patient was frequently found in a somnolence state even in the daytime and occasional decrease in the level of consciousness during meal caused difficulty in swallowing. Standing and walking became impossible during a period of repeated high fever. Chest CT detected a sign of aspiration pneumonia and the patient was admitted to a nearby hospital.
# Immediately after the hospitalization, administration of antibiotics against the pulmonary inflammatory disease was started and high dose administration of mineralocorticoid (200 mg injection of Hydrocortone/day, for 7 days in plan) was also started for the purpose of steroid supplementation against the potential hypoadrenalism (mineral imbalance), due to the previous sustained steroid (5 mg) therapy. […] On Day 9 after the hospitalization, the patient became almost bedridden and nonresponsive. On Day 10 after the hospitalization, administration of a high dose of glucocorticoid (30 mg/day of Predonine) for anti-inflammatory effect was therefore started for the purpose of ameliorating the cerebral hypofunction, based on the informed consent.
# However, from Day 20 after the hospitalization, a somnolence tendency appeared again and the symptoms of decline of cognitive ability, inability to walk, lack of speech, urine incontinence, apraxia and agnosia appeared again.
# Since no tendency to alleviate the symptoms was observed, on Day 22 after the hospitalization, administration of 25 mg of iguratimod (for example, the trade name “Kolbet” produced and sold as an antirheumatic drug by Taisho Toyama Pharmaceutical Co., Ltd. or the trade name “Careram” produced and sold by Eisai Co., Ltd.), in addition to the high dose glucocorticoid therapy, was started for the purpose of ameliorating cognitive impairment, walking impairment, decrease of energy and spontaneity, and aphasia, apraxia, and agnosia, based on the informed consent. […]
# [2] = system: patient with moderate dementia caused by AZD; assay: Clinical case, Example 2: patient with moderate dementia caused by AZD, not associated with CAA; type: in vivo, human
# Procedure: A person became indifferent to social activities and meeting people 3 to 4 years ago. Cognitive impairment appeared to the degree to cause difficulty in daily life activities 2 years ago. One year ago, cognitive impairment further progressed and MMSE was conducted to get scores of 14 or less. Since a head imaging detected moderate atrophy in the cerebral cortex including the parietal lobe and the hippocampus, the patient was diagnosed with “moderate dementia caused by AZD” based on the clinical and brain imaging observations. In the everyday life, disturbance of memorization was observed, in which the patient forgot contents of conversation in 5 minutes and purchased the same thing repeatedly when they went out alone. The patient liked cooking previously, but became unable to cook or adjust the taste. […] The patient became unable to manage own medication such as an antihypertensive agent (cognitive impairment on table and calculation) and management by a family member became necessary. Since efficacy (suppression of progressive symptoms) of a conventional drug against AZD was not observed for a half year or more, the administration of iguratimod at 25 mg/day was started, based on the informed consent to the patient and their family, and the dose was increased to 50 mg/day 4 weeks later.
# [3] = compared with MTX and SASP; cited from earlier work
# [4] = system: production of interleukin-1 and 6 (IL-1/6) and tumor necrosis factor (TNFα) from monocyte lineage cells (macrophages); conditions: in inflammation; cited from earlier work
# [5] = 6 months after starting the administration
# [6] = at discharge, 2 months after starting the administration
smiles,measurement,setting,value
C[C@]12CCC(=O)C=C1CC[C@@H]1[C@@H]2[C@@H](O)C[C@@]2(C)[C@H]1CC[C@]2(O)C(=O)CO [Hydrocortone],"neurological symptoms (energy, speech, cognitive function, walking ability)","[1]; 200 mg injection/day, from 3 days after the start of the steroid replacement therapy","increase in energy and speech, amelioration of cognitive function, and improvement of walking ability were observed"
same,neurological symptoms,"[1]; 200 mg injection/day, from Day 5 to 6 after the start of administration",the symptoms gradually aggravated
"CS(=O)(=O)Nc1cc2occ(NC=O)c(=O)c2cc1Oc1ccccc1 [iguratimod, N-(3-formamido-4-oxo-6-phenoxy-4H-chromen-7-yl) methanesulfonamide]",head imaging: progression of cerebral atrophy,[2]; 5 months after starting the administration,the progression of cerebral atrophy was not observed
same,Scores of MMSE,"[2]; 5 months after starting the administration, scores one year before 14 or less",≥ 17
same,symptoms in daily life,"[2]; iguratimod 25 mg/day, 50 mg/day after 4 weeks, 3 months after starting the administration",symptoms such as getting lost and failing to go home and purchasing the same thing repeatedly had disappeared
same,continuous walking distance with an assistance,[1]; [5],about 100 m
same,steps of stairs walked up with an assistance and use of handrail,[1]; [5],15 steps
same,head MRI: novel vascular abnormality or progression of cerebral atrophy,"[1]; 6 months after starting the administration, compared with MRI before starting",did not detect any appearance of novel vascular abnormality or progression of cerebral atrophy
same,head imaging by 3T-MRI:SWI: progression of cerebral atrophy and other lesions,[1]; 7 months and 19 months after the beginning of iguratimod,the progression of cerebral atrophy and other lesions was not apparent
same,eating behavior,[1]; a half year after starting the administration,able to have meals by oneself using chopsticks
same,continuous walking distance with an assistance,[1]; [6],about 50 m
same,steps of stairs walked up with an assistance at both arms,[1]; [6],8 steps
same,spontaneity and neurological symptoms,"[1]; iguratimod 25 mg added to high dose glucocorticoid, 2 days after starting the administration",apparent amelioration of spontaneity was observed
same,mini-mental state examination (MMSE) score,"[1]; one year after starting oral administration, score before starting 10 or less (severe dementia)",≥ 10
same,symptoms after steroid agent stopped completely,[1]; one year after starting the administration of iguratimod,no aggravation of symptoms
same,efficacy in rheumatoid arthritis,[3],efficacy equivalent to MTX and SASP
same,effect on production of IL-1/6 and TNFα from monocyte lineage cells (macrophages),[4],suppressing effects
C[C@]12C=CC(=O)C=C1CC[C@@H]1[C@@H]2[C@@H](O)C[C@@]2(C)[C@H]1CC[C@]2(O)C(=O)CO [Predonine],"neurological symptoms (somnolence, energy, speech, walking, meals)",[1]; high dose glucocorticoid (30 mg/day of Predonine) started on Day 10 after hospitalization,"alleviated a neurological symptom (decrease in somnolence), increased energy and speech"
same,prevention of progression of the symptoms,"[1]; sustained glucocorticoid therapy at maximum dose for the patient's age, for 10 days or more, symptoms reappeared from Day 20 after hospitalization",cannot prevent the progression of the symptoms
